{"source": "patent US20170362388A1", "about": "“Disulfide Polymers and Methods of Use” (The Brigham and Women's Hospital, Inc., priority 2014, published 2017)", "key": {"Maximum tolerated dose": {"test": "Maximum tolerated dose", "conditions": "mouse, in vivo; normal Balb/c mice"}, "Hela and DU145 cells": {"system": "Hela and DU145 cells", "test": "In vitro anticancer performance of docetaxel-loaded NPs, alamar blue", "assay_type": "cell-based", "experimental": "Hela, MCF-7, A549, and DU145 cells were used to evaluate in vitro anticancer performance of docetaxel-loaded NPs (Cys-OMe-8/Cys-8E NPs with 10 wt % docetaxel loaded with docetaxel concentration ranging from 1 ng/ml to 500 ng/mL). Hela, MCF-7, A549, and DU145 cells were used. Cells (5,000 cells/well) were seeded in 96-well plates the day before use, and cultured according to recommendations from ATCC. Cells were treated with different concentrations of free docetaxel or docetaxel loaded NP for 4 h or 48 h (N=5). For the 4 h experiment, treated cells were washed twice with PBS buffer and the plate was incubated for another 44 h after replacement of fresh medium. Cell viability at 48 h was determined by alamar blue assay. As a control, the polymer cytotoxicity on Hela cells was ascertained using empty NPs.\nIn FIGS. 24B and 24D: DU145 cells were treated with docetaxel-loaded NPs for 4 h and 48 h, respectively.\nThe Alamar blue assay was used to evaluate the NP cytotoxicity. Briefly, 10% 0.1 mg/mL alamar blue was first added into each well and the plate was incubated for another 2 h. Then the fluorescence intensity was measured by a microplate reader (excitation/emission=530 nm/590 nm)."}, "[1]": {"system": "A549 Human Lung Carcinoma Xenograft", "test": "Antitumor efficacy of docetaxel-loaded NPs", "assay_type": "in vivo, mice", "conditions": "5 mg/kg docetaxel equivalent, iv tail vein, two injections", "experimental": "A549 cell suspension (100 μL, equivalent to 5×10^6 cells) was first mixed with 100 μL Matrigel (BD scientific Co.), then subcutaneously injected into the right flank of 5-week-old female athymic nude mice (Charles River). The treatment was initiated on the 9th day, when solid tumor reached ˜100 mm^3. Tumor-bearing mice were divided into 4 groups and injected […] on the 9th and 23rd days after tumor inoculation with: (i) 1× PBS (ii) docetaxel 5 mg/kg (MTD), (iii) Cys-OMe-8/Cys-8E NPs at a docetaxel equivalent dose of 5 mg/kg (MTD), (iv) Cys-OMe-8/Cys-8E NPs at a docetaxel equivalent dose of 10 mg/kg. Control or drugs were administered by intravenous injection in the lateral tail vein (10 μL per g of body weight). Tumor dimension and body weight were recorded every other day. Tumor volume was calculated as follows: Volume [mm^3]=[…]. Mice were regularly monitored (every other day) for physical performance and were euthanized upon exceeding 15% weight loss, over 1500 mm^3 volume or if tumor ulceration was observed. Prior to the experiment, the maximum tolerated dose (MTD) of free docetaxel was established in normal Balb/c mice at 5 mg/kg. Tumor volumes at Day 30 were compared using the ANOVA analysis.\nFIG. 30 is a plot of the antitumor effects of docetaxel-loaded Cys-OMe-8/Cys-8E nanoparticles in A549 tumor bearing mice. […]"}}, "data": [{"smiles": "CC(=O)O[C@@]12CO[C@@H]1C[C@H](O)[C@@]1(C)C(=O)[C@H](O)C3=C(C)[C@@H](OC(=O)[C@H](O)[C@@H](NC(=O)OC(C)(C)C)c4ccccc4)C[C@@](O)([C@@H](OC(=O)c4ccccc4)[C@H]21)C3(C)C", "note": "[docetaxel]", "values": [{"measurement": "MTD", "setting": "Maximum tolerated dose", "result": 5, "unit": "mg/kg"}, {"measurement": "IC50", "setting": "Hela and DU145 cells; 4 h treatment, viability at 48 h", "result": "~0.1", "unit": "µg/mL"}, {"measurement": "IC50", "setting": "Hela and DU145 cells; 48 h treatment", "result": "~0.005", "unit": "µg/mL"}, {"measurement": "Tumor inhibition", "setting": "[1]", "result": "only limited tumor inhibition"}]}]}
